In patent US10538555B2, “Macrocyclic inhibitors of the PD-1/PD-L1 and CD80(B7-1)/PD-L1 protein/protein interactions” (BRISTOL-MYERS SQUIBB COMPANY, priority 2014, dated 2020) one finds IC50 data, which are given here for eleven compounds.

This assay deals with T1, Human PD-L1/PD-1 (Homo sapiens, UniProt Q9NZQ7).
T1 construct: TVMV protease cleavage site (C); made in house; host or cells: HEK293T cells
Kind of assay: HTRF Human PD-L1/PD-1 binding assay (PD-1-Ig/PD-L1-His). The conditions noted are these: PD-L1-His 10 nM, PD-1-Ig 20 nM. The method in brief: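 HTRF read-out (665/620 nm ratio) after 30 min equilibration with Eu-cryptate anti-Ig mAb (1 nM) and APC anti-His mAb (20 nM). Peptides preincubated 15 min with PD-L1-His (10 nM), then PD-1-Ig (20 nM) added for 15 min.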
A general note: In TR-FRET formats the signal depends on donor and acceptor labels being close together.

Where [1] appears, read: class symbol, read-out: HTRF Human PD-L1/PD-1 Binding Assay IC50 Range.

Each structure is given as a SMILES string. Read-outs that look alike come from different tables or passages of the source. *1 amine or outer side, *2 acyl side, *3 side chain or, on linkers, in order; H or OH if unused. Where a SMILES comes first, the peptide text is derived from it. Bridges are numbered along the chain shown (N, C = ends). [ ]: non-standard residue; d: D form. ξ: configuration not given here. Trp(1-CH2COOH) = N[C@@H](Cc1cn(CC(=O)O)c2ccccc12)C(=O)O; Phe(2,4-Cl2) = N[C@@H](Cc1ccc(Cl)cc1Cl)C(=O)O; Phe(3,4-F2) = N[C@@H](Cc1ccc(F)c(F)c1)C(=O)O; X8 = O=C([C@H](CC1CNc2ccccc21)N[*:1])[*:2]; Phe(4-Me) = Cc1ccc(C[C@H](N)C(=O)O)cc1; ξPro(4R-OH) = O=C(O)C1C[C@@H](O)CN1; Hyp = O=C(O)[C@@H]1C[C@@H](O)CN1; NMeAhp(2) = CCCCC[C@H](NC)C(=O)O; Aad = N[C@@H](CCCC(=O)O)C(=O)O; NMeNle = CCCC[C@H](NC)C(=O)O; ξR = N=C(N)NCCCC(N)C(=O)O; NMeA = CN[C@@H](C)C(=O)O; Dab = NCC[C@H](N)C(=O)O; Dap = NC[C@H](N)C(=O)O; ξP = O=C(O)C1CCCN1

T1 sequence (Q9NZQ7 with tags, fused parts or gaps): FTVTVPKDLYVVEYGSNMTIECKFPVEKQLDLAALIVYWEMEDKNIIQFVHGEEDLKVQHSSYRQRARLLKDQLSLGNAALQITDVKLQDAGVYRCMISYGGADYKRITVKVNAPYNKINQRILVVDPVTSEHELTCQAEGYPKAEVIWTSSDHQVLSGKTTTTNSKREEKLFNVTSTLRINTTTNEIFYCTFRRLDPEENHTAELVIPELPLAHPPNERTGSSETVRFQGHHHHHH

Consider `CCCC[C@H]1C(=O)N(C)[C@@H](CCCC)C(=O)N[C@@H](CCN)C(=O)N[C@H](C(=O)NCC(N)=O)CSCC(=O)N[C@@H](Cc2ccc(O)cc2)C(=O)N(C)[C@@H](C)C(=O)N[C@@H](CC(N)=O)C(=O)N2CCC[C@H]2C(=O)N[C@@H](Cc2cnc[nH]2)C(=O)N[C@@H](CCC(=O)O)C(=O)N2C[C@H](O)C[C@H]2C(=O)N[C@@H](Cc2c[nH]c3ccccc23)C(=O)N[C@@H](CCN)C(=O)N[C@@H](Cc2cn(CC(=O)O)c3ccccc23)C(=O)N1C` [Example 6331] ({CH2CO}-Y[NMeA]NPHE[Hyp]W[Dab][Trp(1-CH2COOH)][NMeNle][NMeNle][Dab]CG-NH2; thioether N-14), for which the IC50 under setting [1] lay within 1 to 9.9 nM.
In the case of `CCCC[C@H]1C(=O)N(C)[C@@H](CCCC)C(=O)N[C@@H](CC(=O)O)C(=O)N[C@H](C(N)=O)CSCC(=O)N[C@@H](Cc2ccc(O)cc2)C(=O)N(C)[C@@H](C)C(=O)N[C@@H](CC(N)=O)C(=O)N2CCC[C@H]2C(=O)N[C@@H](CN)C(=O)N[C@@H](CC(C)C)C(=O)N2C[C@H](O)C[C@H]2C(=O)N[C@@H](Cc2c[nH]c3ccccc23)C(=O)N[C@@H](CO)C(=O)N[C@@H](Cc2cn(CC(=O)O)c3ccccc23)C(=O)N1C` [Example 6334] ({CH2CO}-Y[NMeA]NP[Dap]L[Hyp]WS[Trp(1-CH2COOH)][NMeNle][NMeNle]DC-NH2; thioether N-14), the IC50 under setting [1] was 1 to 9.9 nM.
Same read-out and setting: the figure for `CCCC[C@H]1C(=O)N(C)[C@@H](CCCC)C(=O)N[C@@H](CCC(=O)O)C(=O)N[C@H](C(=O)NCC(N)=O)CSCC(=O)N[C@@H](Cc2ccc(O)cc2)C(=O)N(C)[C@@H](C)C(=O)N[C@@H](CC(=O)O)C(=O)N2CCC[C@H]2C(=O)N[C@@H](Cc2cnc[nH]2)C(=O)N[C@@H](CCC(N)=O)C(=O)N2C[C@H](O)C[C@H]2C(=O)N[C@@H](Cc2c[nH]c3ccccc23)C(=O)N[C@@H](CO)C(=O)N[C@@H](Cc2cn(CC(=O)O)c3ccccc23)C(=O)N1C` [Example 6335] ({CH2CO}-Y[NMeA]DPHQ[Hyp]WS[Trp(1-CH2COOH)][NMeNle][NMeNle]ECG-NH2; thioether N-14) is 1 to 9.9 nM; for `CCCC[C@H]1C(=O)N(C)[C@@H](CCCC)C(=O)N[C@@H](CCCNC(=N)N)C(=O)N[C@H](C(=O)NCC(N)=O)CSCC(=O)N[C@@H](Cc2ccc(O)cc2)C(=O)N(C)[C@@H](C)C(=O)N[C@@H](CC(N)=O)C(=O)N2CCC[C@H]2C(=O)N[C@@H](Cc2cnc[nH]2)C(=O)N[C@@H](CCCCN)C(=O)N2C[C@H](O)C[C@H]2C(=O)N[C@@H](Cc2c[nH]c3ccccc23)C(=O)N[C@@H](CO)C(=O)N[C@@H](Cc2cn(CC(=O)O)c3ccccc23)C(=O)N1C` [Example 6338] ({CH2CO}-Y[NMeA]NPHK[Hyp]WS[Trp(1-CH2COOH)][NMeNle][NMeNle]RCG-NH2; thioether N-14) it is 10 to 99.9 nM.
For the compound `CCCC[C@H]1C(=O)N(C)[C@@H](CCCC)C(=O)N[C@@H](CCC(=O)O)C(=O)N[C@H](C(=O)NCC(N)=O)CSCC(=O)N[C@@H](Cc2ccc(O)cc2)C(=O)N(C)[C@@H](C)C(=O)N[C@@H](CC(N)=O)C(=O)N2CCCC2C(=O)N[C@@H](CN)C(=O)N[C@@H](CC(C)C)C(=O)N2C[C@H](O)C[C@H]2C(=O)N[C@@H](Cc2c[nH]c3ccccc23)C(=O)N[C@@H](CCN)C(=O)N[C@@H](Cc2cn(CC(=O)O)c3ccccc23)C(=O)N1C` (some centres unmarked) [Example 6344] ({CH2CO}-Y[NMeA]N[ξP][Dap]L[Hyp]W[Dab][Trp(1-CH2COOH)][NMeNle][NMeNle]ECG-NH2; thioether N-14), under setting [1], the IC50 was 1 to 9.9 nM.
Regarding `CCCCC[C@H]1C(=O)N[C@@H](CC(C)C)C(=O)N[C@H](C(=O)NCC(N)=O)CSCC(=O)N[C@@H](Cc2ccc(O)cc2)C(=O)N(C)[C@@H](C)C(=O)N[C@@H](CC(N)=O)C(=O)N2CCC[C@H]2C(=O)N[C@@H](Cc2cnc[nH]2)C(=O)N[C@@H](CCC(N)=O)C(=O)N2C[C@H](O)C[C@H]2C(=O)N[C@@H](Cc2c[nH]c3ccccc23)C(=O)N[C@@H](CCN)C(=O)N[C@@H](Cc2cn(CC(=O)O)c3ccccc23)C(=O)N(C)[C@@H](CCCC)C(=O)N1C` [Example 6415] ({CH2CO}-Y[NMeA]NPHQ[Hyp]W[Dab][Trp(1-CH2COOH)][NMeNle][NMeAhp(2)]LCG-NH2; thioether N-14), under “read-out: HTRF Human PD-L1/PD-1 Binding Assay IC50”, the IC50 was 177 nM.
For the compound `CCCC[C@H]1C(=O)N(C)[C@@H](CCCC)C(=O)N[C@@H](CC(C)C)C(=O)N[C@H](C(=O)NCC(N)=O)CSCC(=O)N[C@@H](Cc2ccc(O)cc2)C(=O)N(C)[C@@H](C)C(=O)N[C@@H](CC(=O)O)C(=O)N2CCC[C@H]2C(=O)N[C@@H](Cc2cnc[nH]2)C(=O)N[C@@H](CCC(N)=O)C(=O)N2C[C@H](O)C[C@H]2C(=O)N[C@@H](Cc2c[nH]c3ccccc23)C(=O)N[C@@H](CCN)C(=O)N[C@@H](Cc2cn(CC(=O)O)c3ccccc23)C(=O)N1C` [Example 6416] ({CH2CO}-Y[NMeA]DPHQ[Hyp]W[Dab][Trp(1-CH2COOH)][NMeNle][NMeNle]LCG-NH2; thioether N-14), the IC50 under setting [1] is 10 to 99.9 nM.
On the same count and under the same terms, the figure for `CCCC[C@H]1C(=O)N(C)[C@@H](CCCC)C(=O)NC(CCCNC(=N)N)C(=O)N[C@H](C(=O)NCC(N)=O)CCCC(=O)N[C@@H](Cc2ccc(O)cc2)C(=O)N(C)[C@@H](C)C(=O)N[C@@H](CC(N)=O)C(=O)N2CCC[C@H]2C(=O)N[C@@H](CN)C(=O)N[C@@H](CC(C)C)C(=O)N2C[C@H](O)CC2C(=O)N[C@@H](Cc2c[nH]c3ccccc23)C(=O)N[C@@H](CO)C(=O)N[C@@H](Cc2c[nH]c3ccccc23)C(=O)N1C` (stereo partly drawn) [Example 7067] (Y[NMeA]NP[Dap]L[ξPro(4R-OH)]WSW[NMeNle][NMeNle][ξR][Aad]G-NH2; lactam N-14) is 10 to 99.9 nM.
Take `CCCC[C@H]1C(=O)N(C)[C@@H](CCCC)C(=O)N[C@@H](CCCNC(=N)N)C(=O)N[C@H](C(=O)NCC(N)=O)CSCC(=O)N[C@@H](Cc2ccc(F)c(F)c2)C(=O)N(C)[C@@H](C)C(=O)N[C@@H](CC(N)=O)C(=O)N2CCC[C@H]2C(=O)N[C@@H](CN)C(=O)N[C@@H](CC(C)C)C(=O)N2C[C@H](O)C[C@H]2C(=O)N[C@@H](Cc2c[nH]c3ccccc23)C(=O)N[C@@H](CO)C(=O)N[C@@H](Cc2c[nH]c3ccccc23)C(=O)N1C` [Example 7068] ({CH2CO}-[Phe(3,4-F2)][NMeA]NP[Dap]L[Hyp]WSW[NMeNle][NMeNle]RCG-NH2; thioether N-14): the IC50 under setting [1] is 10 to 99.9 nM.
Still for that read-out and setting: the figure for `CCCC[C@H]1C(=O)N(C)[C@@H](CCCC)C(=O)N[C@@H](CCCNC(=N)N)C(=O)N[C@H](C(=O)NCC(N)=O)CSCC(=O)N[C@@H](Cc2ccc(Cl)cc2Cl)C(=O)N(C)[C@@H](C)C(=O)N[C@@H](CC(N)=O)C(=O)N2CCC[C@H]2C(=O)N[C@@H](CN)C(=O)N[C@@H](CC(C)C)C(=O)N2C[C@H](O)C[C@H]2C(=O)N[C@@H](Cc2c[nH]c3ccccc23)C(=O)N[C@@H](CO)C(=O)N[C@@H](CC2CNc3ccccc32)C(=O)N1C` (some centres unmarked) [Example 7069] ({CH2CO}-[Phe(2,4-Cl2)][NMeA]NP[Dap]L[Hyp]WS[X8][NMeNle][NMeNle]RCG-NH2; thioether N-14) is 1 to 9.9 nM.
On the same count and under the same terms, the figure for `CCCC[C@H]1C(=O)N(C)[C@@H](CCCC)C(=O)N[C@@H](CCCNC(=N)N)C(=O)N[C@H](C(=O)NCC(N)=O)CSCC(=O)N[C@@H](Cc2ccc(C)cc2)C(=O)N(C)[C@@H](C)C(=O)N[C@@H](CC(N)=O)C(=O)N2CCC[C@H]2C(=O)N[C@@H](CN)C(=O)N[C@@H](CC(C)C)C(=O)N2C[C@H](O)C[C@H]2C(=O)N[C@@H](Cc2c[nH]c3ccccc23)C(=O)N[C@@H](CO)C(=O)N[C@@H](Cc2c[nH]c3ccccc23)C(=O)N1C` [Example 7070] ({CH2CO}-[Phe(4-Me)][NMeA]NP[Dap]L[Hyp]WSW[NMeNle][NMeNle]RCG-NH2; thioether N-14) is 1 to 9.9 nM.
